Experimental data taken from patent US5103018A, “Mitomycin derivatives” (Kyowa Hakko Kogyo Kabushiki Kaisha, priority 1986, dated 1992).
Values after ≈ are worked out from the molar mass of the structure shown.

Columns and labels:
[1] = tested on: Klebsiella pneumoniae ATCC 10031; assay: microbe, parasite or virus in culture; type: cell-based; conditions: ATCC10031, pH 7, read-out: minimum inhibitory concentration, KP
From the text: Certain Compounds I were selected. […] In this table, the microorganisms used are abbreviated as follows:
KP: Klebsiella pneumoniae ATCC 10031

[2] = tested on: Staphylococcus aureus ATCC 6583P; assay: Minimum inhibitory concentration, agar dilution method, SA; type: cell-based; conditions: Staphylococcus aureus, ATCC6583P, pH 7, read-out: minimum inhibitory concentration, SA
From the text: (§1) Certain Compounds I were selected. Table 3 indicates their anti-bacterial activities in terms of their minimum inhibitory concentration (μg/ml), determined by the agar dilution method effected at a pH of 7.0. In this table, the microorganisms used are abbreviated as follows:
SA: Staphylococcus aureus ATCC 6583P

[3] = in vivo; type: in vivo, mice (ddy strain); conditions: mouse, in vivo, ip; read-out: (WBC4000/ED50)* = (WBC4000/ED50)/[(WBC4000/ED50) of MMC1]
Experimental: (§2) Certain compounds were selected from Compounds I. The following Table 4 indicates anti-tumour activity against Sarcoma 180 solid tumour (ED50), acute toxicity (LD50) and effects on the peripheral leucocytes (WBC4000) of each compound.
(§3) (4) Effect upon the number of the peripheral leucocytes:
(§4) Sarcoma 180 solid tumour cells (5×10^6) were subcutaneously implanted into the right armpit of each mouse (body weight 20±2 g) of a group consisting of 5 male mice (ddy strain). 24 hours after implantation,a test compound was abdominally administered to each mouse. 4 days later, blood (each 0.02 ml) was collected from the suborbital plexus vein of each tumour-carrying mouse. The collected sample of blood was dispersed in 9.98 ml of Cell-kit Seven solution. One drop of saponin solution was added to the sample to dissolve erythrocytes and then a microcell counter was used to measure the number of leucocytes. On graph paper, the number of leucocytes was indicated on the y-axis by an arithmetic scale and the does of the test compound was indicated on the x-axis by a logarithmic scale.
(§5) The relationship between the number of peripheral leucocytes and the dosage of the test compound was plotted to obtain WBC4000 viz. the dosage corresponding to […] per mm^3 (about half of the number of leucocytes of normal mice).

[4] = tested on: Sarcoma 180 solid tumour; assay: animal or person; type: in vivo, mice (ddy strain); conditions: for ED50: Mus musculus, Sarcoma-180, ip, 168 h, read-out: ED50 ip
From the text: as §2
(1) Effect against Sarcoma 180 solid tumour:
5×10^6 cells of Sarcoma 180 solid tumour cells were abdominally implanted into male mice of ddy strain. 7 days after this, ascites cells were sampled. The cells were washed once with a sterilized physiological solution of sodium chloride and were used to prepare a cell suspension containing 5×10^7 cells per ml. On each occasion, 0.1 ml of the cell suspension was subcutaneously implanted into the right armpit of a male mouse (ddy strain; body weight 20±2 g). 24 hours after the implantation of the tumour cells, the test compound which was dissolved in a physiological solution of sodium chloride with or without addition of Tween 80 was abdominally administered to each mouse of a group consisting of 5 animals at a does of 0.1-0.2 ml. The anti-tumour activity was determined as follows:
7 days after the implantation, the major axis (a) and the minor axis (b) of the tumour were measured to calculate a value of "a×b^2 /2" which corresponds to the volume of the tumour. The anti-tumour activity was expressed by T/C viz. the ratio of the volume of the tumours (T) of the group of animals administered with the test compound to the corresponding volume of tumours (C) of the untreated animals.
(2) Determination of ED50 :
The term ED50 denotes the administered amount needed for reducing the volume of Sarcoma 180 solid tumours in the animals to 50% on the basis of the corresponding volume of Sarcoma 180 solid tumours in control (untreated) animals.
On graph paper, T/C was indicated by an arithmetic scale on the longitudinal axis and the administered amount of test compound was indicated by a logarithmic scale on the lateral axis.

[5] = tested on: Proteus vulgaris ATCC 6897; assay: Minimum inhibitory concentration, agar dilution method, PV; type: cell-based; conditions: Proteus vulgaris, ATCC6897, pH 7, read-out: minimum inhibitory concentration, PV
From the text: as §1
PV: Proteus vulgaris ATCC 6897

[6] = Solubility in water; type: physicochemical; conditions: water
[7] = tested on: Streptococcus faecalis ATCC 10541; assay: Minimum inhibitory concentration, agar dilution method, SF; type: cell-based; conditions: Enterococcus faecalis, ATCC10541, pH 7, read-out: minimum inhibitory concentration, SF
From the text: as §1
SF: Streptococcus faecalis ATCC 10541

[8] = Acute toxicity; type: in vivo, mice (ddy); conditions: mouse, in vivo, ip; for LD50 at 336 h: ddy mice, single i.p., 14 days, Behren Korber's method; for selectivity ratio: read-out: (C.I.)* = (LD50/ED50)/[(LD50/ED50) of MMC1]
Experimental: as §2
(§6) Each animal of the test group consisting of 5 ddy mice was once administered (i.p.) with a test compound. […] The LD50 was determined by Behren Korber's method.

[9] = tested on: Escherichia coli ATCC 26; assay: Minimum inhibitory concentration, agar dilution method, EC; type: cell-based; conditions: Escherichia coli, ATCC26, pH 7, read-out: minimum inhibitory concentration, EC
From the text: as §1
EC: Escherichia coli ATCC 26

[10] = Stability of isolated compound; type: physicochemical
[11] = tested on: peripheral leucocytes; assay: in vivo; type: in vivo, mice (ddy strain); conditions: for WBC4000/ED50 (in words): in comparison with mitomycin C
Experimental: as §2, §3, §4, §5

[12] = tested on: ddy mice; assay: Acute toxicity; type: in vivo; conditions: for C.I. (LD50/ED50) (in words): in comparison with mitomycin C
Experimental: as §2, §6

[13] = tested on: P388 Leukemia; assay: Effect upon Leukemia P 388; type: in vivo, mouse (CDF1); conditions: single i.p., 33 days
Experimental: (5) Effect upon Leukemia P 388:
Ascites cells were collected from P388 Leukemia-carrying mouse (DBA/2) 7 days after the implantation. The number of the cells of P388 Leukemia in the sample was counted. A physiological solution of sodium chloride was sterilized and used to prepare a cell suspension containing 5×10^6 tumour cells per ml. On each occasion, 0.2 ml of the suspension containing 1×10^6 cells was implanted into the abdominal cavity of each mouse (CDF1; body weight 20~25 g). 24 hours after implantation, the test compound was once given to each mouse of a test group consisting of 6 mice by abdominal injection.
The activity of the test samples was determined by the ratio of the average survival days of the treated animals to the average survival days of untreated animals viz. ILS % (Increased Life Span).

[14] = Lipophilicity; type: physicochemical; conditions: in comparison with mitomycin C

Row | SMILES | MIC [1] | MIC [2] | selectivity ratio [3] | ED50 [4] | MIC [5] | solubility [6] | MIC [7] | LD50 at 336 h [8] | selectivity ratio [8] | MIC [9] | WBC4000/ED50 (in words) [11] | C.I. (LD50/ED50) (in words) [12] | lipophilicity (in words) [14] | other results
1 | CO[C@@]12[C@H](COC(N)=O)C3=C(C(=O)C(C)=C(NCCSSCCCNC(=O)CC[C@H](N)C(=O)O)C3=O)N1C[C@@H]1N[C@@H]12 [Compound 4, 7-N-[2-[[3-(N^5 -L-glutamino)propyl]dithio]ethyl]mitomycin C] | 0.8 µg/mL (≈ 1.31 µM) | 1.6 µg/mL (≈ 2.61 µM) | 1.27 | 5.1 mg/kg | 3.1 µg/mL (≈ 5.06 µM) | > 20 mg/mL | 3.1 µg/mL (≈ 5.06 µM) | 22.5 mg/kg | 1.52 | 250 µg/mL (≈ 408 µM) | – | – | – | –
2 | CC1=C(/C=C/C(C)=C/C=C/C(C)=C/C(=O)NCCSSc2ccccn2)C(C)(C)CCC1 [Compound "m", N-2-(2-pyridyldithio)ethylretinamide] | – | – | – | – | – | – | – | – | – | – | – | – | – | stability (in words) [10]: unstable
3 | CO[C@@]12[C@H](COC(N)=O)C3=C(C(=O)C(C)=C(NCCSSCCNC(=O)C[C@H](N)C(=O)O)C3=O)N1C[C@@H]1N[C@@H]12 [Compound 6, 7-N-[2-[[2-(N^4 -L-asparagino)ethyl]dithio]ethyl]mitomycin C] | 0.8 µg/mL (≈ 1.37 µM) | 0.8 µg/mL (≈ 1.37 µM) | 2.38 | 5 mg/kg | 0.8 µg/mL (≈ 1.37 µM) | > 20 mg/mL | 3.1 µg/mL (≈ 5.3 µM) | 26.3 mg/kg | 1.81 | > 50 µg/mL | – | – | – | –
4 | CO[C@@]12[C@H](COC(N)=O)C3=C(C(=O)C(C)=C(NCCSSCCNC(=O)CC[C@@H](N)C(=O)O)C3=O)N1C[C@@H]1N[C@@H]12 [Compound 3, 7-N-[2-[[2-(N^5 -D-glutamino)ethyl]dithio]ethyl]mitomycin C] | 0.8 µg/mL (≈ 1.34 µM) | 1.6 µg/mL (≈ 2.67 µM) | 3.02 | 5.7 mg/kg | 0.8 µg/mL (≈ 1.34 µM) | > 20 mg/mL | 3.1 µg/mL (≈ 5.18 µM) | 22.5 mg/kg | 1.46 | 50 µg/mL (≈ 83.5 µM) | – | – | – | –
5 | CO[C@]12[C@H](COC(N)=O)[C@H]3C(=O)C(N)=C(C)C(=O)[C@]34N3[C@H]1[C@@H]3CN24 [MM-C 2, albomitomycin C, reference compound] | – | – | – | – | – | – | – | – | – | – | – | – | – | (WBC4000/ED50)* = (WBC4000/ED50)/[(WBC4000/ED50) of MMC1] ([11]; relative to mitomycin C, ip, 4 days after dosing): 0.95; ED50 ip ([4]; ddy mice, i.p. 24 h after implantation, 50% reduction of tumour volume at day 7): 5.4 mg/kg; LD50 ip ([12]; ddy mice, single i.p., 14 days, Behren Korber's method): < 12.0 mg/kg; (C.I.)* = (LD50/ED50)/[(LD50/ED50) of MMC1] ([12]; relative to mitomycin C, ip): 1.16
6 | CO[C@@]12[C@H](COC(N)=O)C3=C(C(=O)C(C)=C(NCCSSCC(=O)O[C@H]4CC[C@H]5[C@@H]6CCc7cc(OC(=O)c8ccccc8)ccc7[C@H]6CC[C@]45C)C3=O)N1C[C@@H]1N[C@@H]12 [Compound 26, 7-N-[2-[[[[17β-(3-benzoyloxy-1,3, 5(10)-estratrienyl)oxy]carbonyl]methyl]dithio]ethyl]mitomycin C] | – | – | 2.57 | 5 mg/kg | – | – | – | 18.8 mg/kg | 1.27 | – | superior to mitomycin C | superior to mitomycin C | superior to mitomycin C | ILS* (ratio of ILS % to that of mitomycin C) ([13]; dose 6.25 mg/kg): > 1.08
7 | CC1=C(NCCSSCC(=O)O[C@H]2CC[C@H]3[C@@H]4CCc5cc(OC(=O)c6ccccc6)ccc5[C@H]4CC[C@]23C)C(=O)C2=C(C1=O)N1C[C@H]3[C@H](N3C)[C@]1(O)[C@H]2COC(N)=O (stereo partly drawn) [Compound 28, 7-N-[2-[[[[17β-(3-benzoyloxy-1,3, 5(10)-estratrienyl)oxy]carbonyl]methyl]dithio]ethyl]mitomycin D] | – | – | 1.43 | 9.9 mg/kg | – | – | – | 75 mg/kg | 2.53 | – | superior to mitomycin C | superior to mitomycin C | superior to mitomycin C | ILS* (ratio of ILS % to that of mitomycin C) ([13]; dose 25 mg/kg): > 1.67
8 | Cc1c(C)c2c(c(C)c1OC(=O)CCC(=O)NCCSSc1ccccn1)CC[C@@](C)(CCC[C@H](C)CCC[C@H](C)CCCC(C)C)O2 [Compound "n"] | – | – | – | – | – | – | – | – | – | – | – | – | – | stability (in words) [10]: relatively stable
9 | CO[C@@]12[C@H](COC(N)=O)C3=C(C(=O)C(C)=C(NCCSSCCC(=O)O[C@H]4CC[C@H]5[C@@H]6CCc7cc(OC(=O)c8ccccc8)ccc7[C@H]6CC[C@]45C)C3=O)N1C[C@@H]1N[C@@H]12 [Compound 27, 7-N-[2-[[2-[[17β-(3-benzoyloxy-1,3, 5(10)-estratrienyl)oxy]carbonyl]ethyl]dithio]ethyl]mitomycin C] | – | – | 2.43 | 4.6 mg/kg | – | – | – | 22.5 mg/kg | 1.63 | – | superior to mitomycin C | superior to mitomycin C | superior to mitomycin C | ILS* (ratio of ILS % to that of mitomycin C) ([13]; dose 12.5 mg/kg): > 1.53
